From US20240391965A1, “STAPLED ANTIMICROBIAL PEPTIDES (STAMPS) AND USES THEREOF” (Lytica Therapeutics, Inc., priority 2021, published 2024)
Converted amounts (≈) assume the structure as drawn. Starred links: 1 amine or outer side, 2 acyl side, 3 side chain; linkers in the order of their positions; H or OH if unused. Positions of bridges follow the written chain, without caps; N, C: chain ends. Residues, ends and D or L forms follow the SMILES beside them. Biphenyl(4,4'-CH2)2 = c1cc(-c2ccc(C[*:2])cc2)ccc1C[*:1]; mXylylene = c1cc(C[*:1])cc(C[*:2])c1; pXylylene = c1cc(C[*:2])ccc1C[*:1]

Assays:
[1] = 90 minute cytotoxicity assay (LDH release), renal toxicity; type: cell-based
Text: In some embodiments, a peptide provided herein has renal toxicity that is at least 10% (e.g., at least 15%, at least 20%, at least 25%, at least 30%, at least 35%, at least 40%, at least 45%, at least 50%, at least 55%, at least 60%, at least 65%, at least 65%, at least 70%, at least 75%, at least 80%, at least 85%, at least 90%, at least 95%, at least 99%) lower than the renal toxicity of the reference. The renal toxicity of a peptide can be measured in vitro using a renal proximal tubule epithelial cell (RPTEC) renal toxicity assay.
Cell culture: RPTEC were maintained in MEM media supplemented with growth factors. HEPG2 cell line was maintained in Eagle's Minimum Essential Medium (EMEM) supplemented with fetal bovine serum to a final concentration of 10%.
90 minute cytotoxicity assay: Cells were plated in a 96-well format, and after overnight incubation, media was replaced with fresh media. Serial dilutions of StAMPs from a 5 mg/mL water stock, or vehicle, were added to the cells in a final volume of 100 μl. After incubating at 37° C. for 90 min, 50 μl of cell culture media was transferred to a clear 96-well plate, incubated with 50 μl of lactate dehydrogenase (LDH) assay reagent for 10 min, and absorbance measured at 490 nm on a microplate reader.
Renal toxicity was measured after 90 minutes of incubation, while liver toxicity was measured after 48 hours of incubation with StAMPs. N/A=not tested.

[2] = 48 hours cytotoxicity assay (CellTiter-Glo), liver toxicity; type: cell-based, human
Outline: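 Viability from CellTiter-Glo luminescence after StAMP dilution series or vehicle acted on HepG2 cells for 48 h at 37 °C. Cells were grown in EMEM plus 10% FBS and given 4 h to attach before dosing.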

Structure (SMILES) | IC50 [1] [µg/mL] | IC50 [2] [µg/mL]
CC[C@H](C)[C@H](NC(=O)CN)C(=O)N[C@@H](Cc1ccccc1)C(=O)N[C@@H](CO)C(=O)N[C@@H](CCCCN)C(=O)N[C@@H](CC(C)C)C(=O)N[C@@H](C)C(=O)NCC(=O)N[C@@H](CCCCN)C(=O)N[C@@H](CCCCN)C(=O)N[C@H](C(=O)N[C@@H](CCCCN)C(=O)N[C@H]1CSCc2ccc(cc2)CSC[C@@H](C(=O)NCC(=O)N[C@@H](CC(C)C)C(=O)N[C@@H](CCCCN)C(=O)NCC(N)=O)NC(=O)[C@H]([C@@H](C)CC)NC(=O)[C@H](CC(C)C)NC(=O)[C@H](CC(C)C)NC1=O)[C@@H](C)CC [compound 24] (H-GIFSKLAGKKIKCLLICGLKG-NH2; linker 13-17 via pXylylene; N-terminus assumed) | 54 (≈ 23.6 µM) | 103 (≈ 44.9 µM)
CC[C@H](C)[C@H](NC(=O)[C@H](CC(C)C)NC(=O)[C@H](CC(C)C)NC(=O)[C@H](CC(N)=O)NC(=O)[C@H](CCCCN)NC(=O)[C@@H](NC(=O)[C@H](CCCCN)NC(=O)[C@H](CCCCN)NC(=O)CNC(=O)[C@H](C)NC(=O)[C@H](CC(C)C)NC(=O)[C@@H]1CSCc2ccc(cc2)CSC[C@H](N)C(=O)N[C@@H]([C@@H](C)CC)C(=O)N[C@@H](Cc2ccccc2)C(=O)N[C@@H](CO)C(=O)N1)[C@@H](C)CC)C(=O)N[C@@H](CO)C(=O)NCC(=O)N[C@@H](CC(C)C)C(=O)N[C@@H](CCCCN)C(=O)NCC(N)=O [compound 37] (H-CIFSCLAGKKIKNLLISGLKG-NH2; linker 1-5 via pXylylene; N-terminus assumed) | 140 (≈ 60.7 µM) | 33 (≈ 14.3 µM)
CC[C@H](C)[C@H](NC(=O)CN)C(=O)N[C@@H](Cc1ccccc1)C(=O)N[C@@H](CO)C(=O)N[C@@H](CCCCN)C(=O)N[C@@H](CC(C)C)C(=O)N[C@@H](C)C(=O)NCC(=O)N[C@@H](CCCCN)C(=O)N[C@@H](CCCCN)C(=O)N[C@H](C(=O)N[C@@H](CCCCN)C(=O)N[C@@H](CC(N)=O)C(=O)N[C@@H](CC(C)C)C(=O)N[C@@H](CC(C)C)C(=O)N[C@H](C(=O)N[C@H]1CSCc2cccc(c2)CSC[C@@H](C(N)=O)NC(=O)[C@H](CCCCN)NC(=O)[C@H](CC(C)C)NC(=O)CNC1=O)[C@@H](C)CC)[C@@H](C)CC [compound 44] (H-GIFSKLAGKKIKNLLICGLKC-NH2; linker 17-21 via mXylylene; N-terminus assumed) | 86 (≈ 36.6 µM) | 48 (≈ 20.4 µM)
CC[C@H](C)[C@H](NC(=O)CN)C(=O)N[C@@H](Cc1ccccc1)C(=O)N[C@@H](CO)C(=O)N[C@@H](CCCCN)C(=O)N[C@@H](CC(C)C)C(=O)N[C@@H](C)C(=O)NCC(=O)N[C@@H](CCCCN)C(=O)N[C@@H](CCCCN)C(=O)N[C@H](C(=O)N[C@@H](CCCCN)C(=O)N[C@@H](CC(N)=O)C(=O)N[C@H]1CSCc2ccc(cc2)CSC[C@@H](C(=O)N[C@@H](CC(C)C)C(=O)N[C@@H](CCCCN)C(=O)NCC(N)=O)NC(=O)[C@H](CO)NC(=O)[C@H]([C@@H](C)CC)NC(=O)[C@H](CC(C)C)NC1=O)[C@@H](C)CC [compound 27] (H-GIFSKLAGKKIKNCLISCLKG-NH2; linker 14-18 via pXylylene; N-terminus assumed) | > 200 | > 200
CC[C@H](C)[C@H](NC(=O)[C@H](CC(C)C)NC(=O)[C@H](CC(C)C)NC(=O)[C@H](CC(N)=O)NC(=O)[C@H](CCCCN)NC(=O)[C@@H](NC(=O)[C@H](CCCCN)NC(=O)[C@@H]1CSCc2ccc(cc2)-c2ccc(cc2)CSC[C@H](NC(=O)CN)C(=O)N[C@@H](Cc2ccccc2)C(=O)N[C@@H](CO)C(=O)N[C@@H](CCCCN)C(=O)N[C@@H](CC(C)C)C(=O)N[C@@H](C)C(=O)NCC(=O)N1)[C@@H](C)CC)C(=O)N[C@@H](CO)C(=O)NCC(=O)N[C@@H](CC(C)C)C(=O)N[C@@H](CCCCN)C(=O)NCC(N)=O [compound 53] (H-GCFSKLAGCKIKNLLISGLKG-NH2; linker 2-9 via Biphenyl(4,4'-CH2)2; N-terminus assumed) | 40 (≈ 17.2 µM) | 78 (≈ 33.5 µM)
CC[C@H](C)[C@H](NC(=O)CN)C(=O)N[C@@H](Cc1ccccc1)C(=O)N[C@@H](CO)C(=O)N[C@@H](CCCCN)C(=O)N[C@@H](CC(C)C)C(=O)N[C@H]1CSCc2cccc(c2)CSC[C@@H](C(=O)N[C@@H](CCCCN)C(=O)N[C@@H](CC(N)=O)C(=O)N[C@@H](CC(C)C)C(=O)N[C@@H](CC(C)C)C(=O)N[C@H](C(=O)N[C@@H](CO)C(=O)NCC(=O)N[C@@H](CC(C)C)C(=O)N[C@@H](CCCCN)C(=O)NCC(=O)N[C@@H](C)C(=O)N[C@@H](CCCCN)C(=O)O)[C@@H](C)CC)NC(=O)[C@H](CCCCN)NC(=O)[C@H](CCCCN)NC(=O)CNC1=O [compound 96] (H-GIFSKLCGKKCKNLLISGLKGAK-OH; linker 7-11 via mXylylene; N-terminus assumed) | 153 (≈ 61 µM) | 193 (≈ 76.9 µM)
CC[C@H](C)[C@H](NC(=O)CN)C(=O)N[C@@H](Cc1ccccc1)C(=O)N[C@@H](CO)C(=O)N[C@@H](CCCCN)C(=O)N[C@@H](CC(C)C)C(=O)N[C@@H](C)C(=O)NCC(=O)N[C@@H](CCCCN)C(=O)N[C@@H](CCCCN)C(=O)N[C@H](C(=O)N[C@@H](CCCCN)C(=O)N[C@@H](CC(N)=O)C(=O)N[C@@H](CC(C)C)C(=O)N[C@@H](CC(C)C)C(=O)N[C@H](C(=O)N[C@H]1CSCc2ccc(cc2)CSC[C@@H](C(N)=O)NC(=O)[C@H](CCCCN)NC(=O)[C@H](CC(C)C)NC(=O)CNC1=O)[C@@H](C)CC)[C@@H](C)CC [compound 45] (H-GIFSKLAGKKIKNLLICGLKC-NH2; linker 17-21 via pXylylene; N-terminus assumed) | 105 (≈ 44.7 µM) | 83 (≈ 35.3 µM)
CC[C@H](C)[C@H](NC(=O)CN)C(=O)N[C@@H](Cc1ccccc1)C(=O)N[C@H]1CSCc2cccc(c2)CSC[C@@H](C(=O)N[C@@H](CCCCN)C(=O)N[C@@H](CCCCN)C(=O)N[C@H](C(=O)N[C@@H](CCCCN)C(=O)N[C@@H](CC(N)=O)C(=O)N[C@@H](CC(C)C)C(=O)N[C@@H](CC(C)C)C(=O)N[C@H](C(=O)N[C@@H](CO)C(=O)NCC(=O)N[C@@H](CC(C)C)C(=O)N[C@@H](CCCCN)C(=O)NCC(N)=O)[C@@H](C)CC)[C@@H](C)CC)NC(=O)[C@H](C)NC(=O)[C@H](CC(C)C)NC(=O)[C@H](CCCCN)NC1=O [compound 5] (H-GIFCKLACKKIKNLLISGLKG-NH2; linker 4-8 via mXylylene; N-terminus assumed) | 14 (≈ 5.96 µM) | 23 (≈ 9.79 µM)
CC[C@H](C)[C@H](NC(=O)CN)C(=O)N[C@@H](Cc1ccccc1)C(=O)N[C@@H](CO)C(=O)N[C@@H](CCCCN)C(=O)N[C@@H](CC(C)C)C(=O)N[C@H]1CSCc2cccc(c2)CSC[C@@H](C(=O)N[C@@H](CCCCN)C(=O)N[C@@H](CC(N)=O)C(=O)N[C@@H](CC(C)C)C(=O)N[C@@H](CC(C)C)C(=O)N[C@H](C(=O)N[C@@H](CO)C(=O)NCC(=O)N[C@@H](CC(C)C)C(=O)N[C@@H](CCCCN)C(=O)NCC(=O)O)[C@@H](C)CC)NC(=O)[C@H](CCCCN)NC(=O)[C@H](CCCCN)NC(=O)[C@H](C)NC1=O [compound 97] (H-GIFSKLCAKKCKNLLISGLKG-OH; linker 7-11 via mXylylene; N-terminus assumed) | > 200 | > 200
CC[C@H](C)[C@H](NC(=O)CN)C(=O)N[C@@H](Cc1ccccc1)C(=O)N[C@@H](CO)C(=O)N[C@@H](CCCCN)C(=O)N[C@@H](CC(C)C)C(=O)N[C@H]1CSCc2cccc(c2)CSC[C@@H](C(=O)N[C@@H](CCCCN)C(=O)N[C@@H](CC(N)=O)C(=O)N[C@@H](CC(C)C)C(=O)N[C@@H](CC(C)C)C(=O)N[C@H](C(=O)N[C@@H](CO)C(=O)NCC(=O)N[C@@H](CC(C)C)C(=O)N[C@@H](CCCCN)C(=O)NCC(=O)N[C@@H](C)C(=O)NCC(=O)O)[C@@H](C)CC)NC(=O)[C@H](CCCCN)NC(=O)[C@H](CCCCN)NC(=O)CNC1=O [compound 95] (H-GIFSKLCGKKCKNLLISGLKGAG-OH; linker 7-11 via mXylylene; N-terminus assumed) | 167 (≈ 68.5 µM) | > 200
CC[C@H](C)[C@H](NC(=O)CN)C(=O)N[C@@H](Cc1ccccc1)C(=O)N[C@@H](CO)C(=O)N[C@@H](CCCCN)C(=O)N[C@H]1CSCc2ccc(cc2)CSC[C@@H](C(=O)N[C@H](C(=O)N[C@@H](CCCCN)C(=O)N[C@@H](CC(N)=O)C(=O)N[C@@H](CC(C)C)C(=O)N[C@@H](CC(C)C)C(=O)N[C@H](C(=O)N[C@@H](CO)C(=O)NCC(=O)N[C@@H](CC(C)C)C(=O)N[C@@H](CCCCN)C(=O)NCC(N)=O)[C@@H](C)CC)[C@@H](C)CC)NC(=O)[C@H](CCCCN)NC(=O)CNC(=O)[C@H](C)NC1=O [compound 8] (H-GIFSKCAGKCIKNLLISGLKG-NH2; linker 6-10 via pXylylene; N-terminus assumed) | 119 (≈ 52.8 µM) | 15 (≈ 6.66 µM)
CC[C@H](C)[C@H](NC(=O)CN)C(=O)N[C@H]1CSCc2cccc(c2)CSC[C@@H](C(=O)NCC(=O)N[C@@H](CCCCN)C(=O)N[C@@H](CCCCN)C(=O)N[C@H](C(=O)N[C@@H](CCCCN)C(=O)N[C@@H](CC(N)=O)C(=O)N[C@@H](CC(C)C)C(=O)N[C@@H](CC(C)C)C(=O)N[C@H](C(=O)N[C@@H](CO)C(=O)NCC(=O)N[C@@H](CC(C)C)C(=O)N[C@@H](CCCCN)C(=O)NCC(N)=O)[C@@H](C)CC)[C@@H](C)CC)NC(=O)[C@H](CC(C)C)NC(=O)[C@H](CCCCN)NC(=O)[C@H](CO)NC1=O [compound 39] (H-GICSKLCGKKIKNLLISGLKG-NH2; linker 3-7 via mXylylene) | 113 (≈ 49.7 µM) | 103 (≈ 45.3 µM)
